Tests used:
thrombocytes = test: Collagen-induced aggregation of thrombocytes in human platelet-rich plasma (Born and Cross); type: cell-based; conditions: 10 min, platelet-rich plasma of healthy human subjects, incubated 10 minutes at 37° C. before collagen, determined graphically, read-out: EC50 (dosage producing 50% inhibition of the thrombocyte aggregation)
Experimental: The aggregation of thrombocytes was measured according to the method of BORN and CROSS [J. Physiol. 170, 397 (1964)] in the platelet-rich plasma of healthy human test subjects. To inhibit coagulation, the blood was admixed with a 3.14% sodium citrate solution in a volumetric ration of 1:10.
The decrease in optical density was measured and recorded photometrically after the addition of the aggreation-inducing substance. From the angle of inclination of the density curve, the rate of aggregation was estimated (Vmax). The optical density was taken as the point on the curve where the most light was transmitted (O.D.).
Small doses of collagen were chosen, but sufficient to give irreversible aggregation. (Commercial collagen of Hormonchemie, Munich, Germany.)
Before the addition of collagen, the plasma was incubated with the substance for 10 minutes at 37° C.,
The dosage of the test compound which produced a 50% inhibition of the thrombocyte aggregation was determined graphically (EC50).

[1] = Acute toxicity after oral administration of a single dose; type: in vivo; conditions: in vivo; mouse, oral single dose 250 mg/kg, 5 mice each, observation time 7 days; read-out: Acute toxicity per os
Experimental: (§1) The acute toxicity was determined in groups of 5 mice each after oral administration of a single dose of 250 mg/kg (observation time: 7 days). The test compound was suspended in 2% methyl cellulose, and after addition of some water, each substance was administered to the conscious animals by means of a stomach tube.

mice = test: as above; type: in vivo; conditions: mouse, oral single dose 250 mg/kg, observation time 7 days
Experimental: as §1

Structure (SMILES) | EC50 (thrombocytes) [nM] | LD50 at 168 h [1] [mg/kg] | animals died (mice)
CCSc1ncnc2c(N3CC[S+]([O-])CC3)nc(N3CCNCC3)nc12 [B, 8-Ethylthio-4-(1-oxido-thiomorpholino)-2-piperazino-pyrimido-[5,4-d]-pyrimidine] | < 10 |  | 
c1ccc(CSc2ncnc3c(N4CCOCC4)nc(N4CCNCC4)nc23)cc1 [C, 8-Benzylthio-4-morpholino-2-piperazino-pyrimido-[5,4-d]-pyrimidine] | 8.5 | > 250 | 0 out of 5 animals
CSc1ncnc2c(N3CC[S+]([O-])CC3)nc(N3CCNCC3)nc12 [Compound A, 8-Methylthio-4-(1-oxido-thiomorpholino)-2-piperazino-pyrimido-[5,4-d]-pyrimidine] | 1 |  | 
[O-][S+]1CCN(c2nc(N3CCNCC3)nc3c(SCCc4ccccc4)ncnc23)CC1 [Compound E, 4-(1-Oxido-thiomorpholino)-8-phenethylthio-2-piperazino-pyrimido-[5,4-d]-pyrimidine] | 22 | > 250 | 0 out of 5 animals
[O-][S+]1CCN(c2nc(N3CCNCC3)nc3c(SCc4ccccc4)ncnc23)CC1 [D, 8-Benzylthio-4-(1-oxido-thiomorpholino)-2-piperazino-pyrimido-[5,4-d]-pyrimidine] | 30 | > 250 | 0 out of 5 animals
[O-][S+]1CCN(c2nc(N3CCN(CCO)CC3)nc3c(SCc4ccccc4)ncnc23)CC1 [F, 8-Benzylthio-2-[N-(2-hydroxyethyl)-piperazino]-4-(1-oxido-thiomorpholino)-pyrimido-[5,4-d]-pyrimidine] | 380 | > 250 | 0 out of 5 animals
CCN(CC)CCSc1ncnc2c(N3CC[S+]([O-])CC3)nc(N3CCNCC3)nc12 [G, 8-(2-Diethylaminoethyl-thio)-4-(1-oxido-thiomorpholino)-2-piperazino-pyrimido-[5,4-d]-pyrimidine] | 20 | > 250 | 0 out of 5 animals
O=C(c1ccco1)N1CCN(c2nc(N3CCOCC3)c3ncnc(SCc4ccccc4)c3n2)CC1 [H, 8-Benzylthio-2-[N-(2-furoyl)-piperazino]-4-morpholino-pyrimido-[5,4-d]-pyrimidine] | 100 | > 250 | 0 out of 5 animals
COc1ccc(CSc2ncnc3c(N4CCOCC4)nc(N4CCNCC4)nc23)cc1OC [I, 8-(3,4-dimethoxybenzyl-thio)-4-morpholino-2-piperazino-pyrimido-[5,4-d]-pyrimidine] | 10 |  | 
CN1CCN(c2nc(N3CC[S+]([O-])CC3)c3ncnc(SCc4ccccc4)c3n2)CC1 [K, 8-Benzylthio-2-(N-methyl-piperazino)-4-(1-oxido-thio-morpholino)-pyrimido-[5,4-d]-pyrimidine] | 350 | > 250 | 0 out of 5 animals
Clc1ccc(CSc2ncnc3c(N4CCOCC4)nc(N4CCNCC4)nc23)c(Cl)c1 [L, 8-(2,4-Dichlorobenzyl-thio)-4-morpholino-2-piperazino-pyrimido-[5,4-d]-pyrimidine] | 8 | > 250 | 0 out of 5 animals
O=CN1CCN(c2nc(N3CC[S+]([O-])CC3)c3ncnc(SCc4ccccc4)c3n2)CC1 [M, 8-Benzylthio-2-(N-formyl-piperazino)-4-(1-oxido-thiomorpholino)-pyrimido-[5,4-d]-pyrimidine] | 15 | > 250 | 0 out of 5 animals
OCCOc1ncnc2c(N3CCOCC3)nc(N3CCNCC3)nc12 [N, 8-(2-Hydroxyethoxy)-4-morpholino-2-piperazino-pyrimido-[5,4-d]-pyrimidine] | 40 |  | 
[O-][S+]1CCN(c2nc(N3CCNCC3)nc3c(SCCO)ncnc23)CC1 [O, 8-(2-Hydroxyethyl-thio)-4-(1-oxido-thiomorpholino)-2-piperazino-pyrimido-[5,4-d]-pyrimidine] | 28 | > 250 | 0 out of 5 animals
c1ccc(Sc2ncnc3c(N4CCSCC4)nc(N4CCNCC4)nc23)cc1 [P, 8-Phenylthio-2-piperazino-4-thiomorpholino-pyrimido-[5,4-d]-pyrimidine] | ~100 |  | 
[O-][S+]1CCN(c2nc(N3CCNCC3)nc3c(OCc4ccccc4)ncnc23)CC1 [Q, 8-Benzyloxy-4-(1-oxido-thiomorpholino)-2-piperazino-pyrimido-[5,4-d]-pyrimidine] | 3.6 | > 250 | 0 out of 5 animals
[O-][S+]1CCN(c2nc(N3CCNCC3)nc3c(NCc4ccccc4)ncnc23)CC1 [R, 8-Benzylamino-4-(1-oxido-thiomorpholino)-2-piperazino-pyrimido-[5,4-d]-pyrimidine] | 4.2 | > 250 | 0 out of 5 animals
CN(Cc1ccccc1)c1ncnc2c(N3CC[S+]([O-])CC3)nc(N3CCNCC3)nc12 [S, 8-(N-Benzyl-methylamino)-4-(1-oxido-thiomorpholino)-2-piperazino-pyrimido-[5,4-d]-pyrimidine] | 3 | > 250 | 0 out of 5 animals
c1ccc(CNc2ncnc3c(N4CCSCC4)nc(N4CCNCC4)nc23)cc1 [T, 8-Benzylamino-2-piperazino-4-thiomorpholino-pyrimido-[5,4-d]-pyrimidine] | 250 | > 250 | 0 out of 5 animals
CN(Cc1ccccc1)c1ncnc2c(N3CC[S+]([O-])CC3)nc(N3CCN(C=O)CC3)nc12 [U, 8-(N-Benzyl-methylamino)-2-(N-formyl-piperazino)-4-(1-oxido-thiomorpholino)-pyrimido-[5,4-d]-pyrimidine] | 290 | > 250 | 1 out of 5 animals
[O-][S+]1CCN(c2nc(N3CCNCC3)nc3c(Nc4ccccc4)ncnc23)CC1 [V, 8-Anilino-4-(1-oxido-thiomorpholino)-2-piperazino-pyrimido-[5,4-d]-pyrimidine] | 30 | > 250 | 1 out of 5 animals
